Consider three compounds from paper PMC11873722 (Cancer Discovery, 2024).

The structures appear in SMILES notation.

In one series the test system is KRAS^G12C NSCLC. Particulars: patients with NSCLC with prior KRAS^G12C(OFF)-only inhibitor treatment; cited from earlier work.
Series [1] is described as follows: Free drug exposure in LUN055 PDX study. In kind it is in vivo, mouse.
For series [2], the target named is RAF1(RBD):KRAS^G12C(ON) interaction in MIA PaCa-2 cells (Homo sapiens, UniProt P01116, G12C). As to the kind of experiment: RAS:RAF ELISA assay in MIA PaCa-2 cells. It is filed as cell-based. As to conditions: 1 µmol/L.
RAF1(RBD):KRAS^G12C(ON) interaction in MIA PaCa-2 cells, sequence (P01116 1-188 isoform P01116-2 G12C): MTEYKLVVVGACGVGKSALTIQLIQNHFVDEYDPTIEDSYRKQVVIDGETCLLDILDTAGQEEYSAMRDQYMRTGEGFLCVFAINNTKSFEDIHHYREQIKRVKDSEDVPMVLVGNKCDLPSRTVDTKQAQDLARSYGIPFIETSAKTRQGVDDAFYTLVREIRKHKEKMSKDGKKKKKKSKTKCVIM

For the compound `CCn1c(-c2cccnc2[C@H](C)OC)c2c3cc(ccc31)N1CCO[C@@H](C[C@H](NC(=O)[C@H](C(C)C)N(C)C(=O)C3(F)CCN(C(=O)C#CC(C)(C)N(C)C)CC3)C(=O)N3CCC[C@H](N3)C(=O)OCC(C)(C)C2)C1` [RMC-6291], the objective response rate in the series on KRAS^G12C NSCLC is given as 50%. In the case of `C=CC(=O)N1CCN(c2nc(=O)n(-c3c(C)ccnc3C(C)C)c3nc(-c4c(O)cccc4F)c(F)cc23)[C@@H](C)C1` [Sotorasib], the “free AUC0–24 hours” value in series [1] (100 mg/kg sotorasib) was 1,563 hours × ng/mL. Moreover, the “free drug concentration higher compared with BBO-8520” value in series [1] (100 mg/kg sotorasib vs 30 mg/kg BBO-8520) came out at 20 fold. For `C=CC(=O)N1CCN(c2nc(OC[C@@H]3CCCN3C)nc3c(F)c(-c4nc(N)cc(C)c4C(F)(F)F)c(Cl)cc23)[C@@H](C)C1` [GDC-6036], the “time required to achieve maximal activity” value in series [2] is “more than 60 minutes”.
